# From PubChem BioAssay AID330 (DTP/NCI, 2004)
# Values joined by “and” are separate entries in the source; they are usually repeats but may differ in a detail not shown here. Equal entries are not always repeated. Inconclusive results and toxic doses are left out. Square brackets hold non-standard residues; d marks the D form. Peptide text beside a SMILES is read from it. * marks the point of attachment. Cbz = O=C(OCc1ccccc1)*; Nva = CCC[CH](N)C(=O)O
# System: P388 leukemia ip, CD2F1 mice, survival T/C
# Assay: NCI In Vivo Anticancer Drug Screen. Data for tumor model P388 Leukemia (intraperitoneal) in CD2F1 (CDF1) mice
# Conditions: endpoint: median survival time, higher = longer survival
# Procedure, shortened: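 Mice carrying the transplanted tumor received test compound or vehicle. Survival was recorded in each group, and the value is the treated-group measurement divided by that of the vehicle-treated control group.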
# [1] = dose: 50.0 mg/kg/injection, schedule: Q01DX009 (ip), vehicle: saline with Tween-80
# [2] = dose: 100.0 mg/kg/injection, schedule: Q01DX009 (ip), vehicle: saline with Tween-80
# [3] = dose: 50.0 mg/kg/injection, schedule: Q01DX005 (ip), vehicle: Klucel (hydroxypropylcellulose) (HPC)
# [4] = dose: 100.0 mg/kg/injection, schedule: Q01DX005 (ip), vehicle: Klucel (hydroxypropylcellulose) (HPC)
# [5] = dose: 200.0 mg/kg/injection, schedule: Q01DX005 (ip), vehicle: Klucel (hydroxypropylcellulose) (HPC)
# [6] = dose: 60.0 mg/kg/injection, schedule: Q01DX005 (ip), vehicle: saline with Tween-80
# [7] = dose: 120.0 mg/kg/injection, schedule: Q01DX005 (ip), vehicle: saline with Tween-80
# [8] = dose: 240.0 mg/kg/injection, schedule: Q01DX005 (ip), vehicle: saline with Tween-80
# [9] = dose: 12.5 mg/kg/injection, schedule: Q01DX009 (ip), vehicle: saline with Tween-80
# [10] = dose: 100.0 mg/kg/injection, schedule: Q01DX001 (ip), vehicle: Klucel (hydroxypropylcellulose) (HPC)
# [11] = dose: 200.0 mg/kg/injection, schedule: Q01DX001 (ip), vehicle: Klucel (hydroxypropylcellulose) (HPC)
# [12] = dose: 400.0 mg/kg/injection, schedule: Q01DX001 (ip), vehicle: Klucel (hydroxypropylcellulose) (HPC)
# [13] = dose: 25.0 mg/kg/injection, schedule: Q01DX009 (ip), vehicle: saline with Tween-80
# [14] = dose: 100.0 mg/kg/injection, schedule: Q04DX003 (ip), vehicle: saline with Tween-80
# [15] = dose: 50.0 mg/kg/injection, schedule: Q04DX003 (ip), vehicle: saline with Tween-80
smiles,measurement,setting,value
O=c1[nH]c(=S)[nH]cc1Oc1ccc(Cl)cc1Cl,T/C,[1],94 % of control
same,T/C,[2],93 % of control
same,T/C,"dose: 200.0 mg/kg/injection, schedule: Q01DX009 (ip), vehicle: saline with Tween-80",95 % of control
same,T/C,"dose: 400.0 mg/kg/injection, schedule: Q01DX009 (ip), vehicle: saline with Tween-80",108 % of control
CCCC(NC(=O)OCc1ccccc1)C(=O)NC(CO)C(=O)O (stereo not drawn) (Cbz-[Nva]-Ser-OH; configuration not given here),T/C,[3],94 % of control
same,T/C,[4],108 % of control
same,T/C,[5],94 % of control
CC1C=CC(C)S(=O)N1C(=O)Cc1ccccc1 (stereo not drawn),T/C,"dose: 60.0 mg/kg/injection, schedule: Q01DX005 (ip), vehicle: Klucel (hydroxypropylcellulose) (HPC)",100 % of control
same,T/C,"dose: 120.0 mg/kg/injection, schedule: Q01DX005 (ip), vehicle: Klucel (hydroxypropylcellulose) (HPC)",106 % of control
same,T/C,"dose: 240.0 mg/kg/injection, schedule: Q01DX005 (ip), vehicle: Klucel (hydroxypropylcellulose) (HPC)",113 % of control
COC1=CC2OC3OC(=O)CC3C2C(OCc2ccccc2)=C1 (stereo not drawn),T/C,[6],91 % of control
same,T/C,[7],88 % of control
same,T/C,[8],90 % of control
CC(=O)C1CCC2=C(C1)C(=O)c1cc3c(-c4ccccc4)oc(-c4ccccc4)c3cc1C2=O (stereo not drawn),T/C,"dose: 7.5 mg/kg/injection, schedule: Q01DX005 (ip), vehicle: Klucel (hydroxypropylcellulose) (HPC)",87 % of control
same,T/C,"dose: 15.0 mg/kg/injection, schedule: Q01DX005 (ip), vehicle: Klucel (hydroxypropylcellulose) (HPC)",94 % of control
C=CC1(O)Cc2cc(C(C)C)c(OC)c(OC)c21 (stereo not drawn),T/C,"dose: 50.0 mg/kg/injection, schedule: Q01DX005 (ip), vehicle: saline with Tween-80",106 % of control
same,T/C,"dose: 100.0 mg/kg/injection, schedule: Q01DX005 (ip), vehicle: saline with Tween-80",119 % of control
same,T/C,"dose: 200.0 mg/kg/injection, schedule: Q01DX005 (ip), vehicle: saline with Tween-80",109 % of control
Clc1c(Cl)c(C[P+](CCP(c2ccccc2)c2ccccc2)(c2ccccc2)c2ccccc2)c(Cl)c(Cl)c1C[P+](CCP(c1ccccc1)c1ccccc1)(c1ccccc1)c1ccccc1,T/C,[9],120 % of control
CCCC(NC(=O)OCc1ccccc1)C(=O)NC(CC(C)C)C(=O)O (stereo not drawn) (Cbz-[Nva]-Leu-OH; configuration not given here),T/C,[3],112 % of control
same,T/C,[4],100 % of control
same,T/C,[5],106 % of control
CC1(O)C2C3C(I)C4C5C3C1C5C42 (stereo not drawn),T/C,[10],92 % of control
same,T/C,[11],88 % of control
same,T/C,[12],87 % of control
O=NN(CCCl)C(=O)OCc1ccccc1,T/C,"dose: 3.12 mg/kg/injection, schedule: Q01DX001 (ip), vehicle: saline with Tween-80",101 % of control
same,T/C,"dose: 6.25 mg/kg/injection, schedule: Q01DX001 (ip), vehicle: saline with Tween-80",100 % of control and 123 % of control
same,T/C,"dose: 12.5 mg/kg/injection, schedule: Q01DX001 (ip), vehicle: saline with Tween-80",108 % of control and 113 % of control
same,T/C,"dose: 25.0 mg/kg/injection, schedule: Q01DX001 (ip), vehicle: saline with Tween-80",110 % of control and 123 % of control
C/C(=N\N)c1cnc(NN)nc1C,T/C,"dose: 7.5 mg/kg/injection, schedule: Q01DX005 (ip), vehicle: saline",106 % of control
same,T/C,"dose: 15.0 mg/kg/injection, schedule: Q01DX005 (ip), vehicle: saline",103 % of control
CCOC(=O)c1ccc(Nc2nc(NNC(=O)c3ccncc3)nc(Nc3ccc(C)cc3)n2)cc1,T/C,[6],99 % of control
same,T/C,[7],99 % of control
same,T/C,[8],99 % of control
CC1=NC2=NC(CCCC(=O)N3CCCCC3)=NC3=CC=CC(=N1)N32,T/C,"dose: 25.0 mg/kg/injection, schedule: Q01DX009 (ip), vehicle: saline",104 % of control
same,T/C,"dose: 50.0 mg/kg/injection, schedule: Q01DX009 (ip), vehicle: saline",101 % of control
same,T/C,"dose: 100.0 mg/kg/injection, schedule: Q01DX009 (ip), vehicle: saline",103 % of control
CCCCCNC(=S)N/N=C(\C)c1ccccn1,T/C,"dose: 12.5 mg/kg/injection, schedule: Q01DX009 (ip), vehicle: Klucel (hydroxypropylcellulose) (HPC)",107 % of control
same,T/C,"dose: 25.0 mg/kg/injection, schedule: Q01DX009 (ip), vehicle: Klucel (hydroxypropylcellulose) (HPC)",123 % of control
same,T/C,"dose: 50.0 mg/kg/injection, schedule: Q01DX009 (ip), vehicle: Klucel (hydroxypropylcellulose) (HPC)",106 % of control
CC(=O)OC1CC2(OC(C)=O)CC(OC2=O)C1OC(C)=O (stereo not drawn),T/C,[10],100 % of control
same,T/C,"dose: 100.0 mg/kg/injection, schedule: Q04DX002 (ip), vehicle: Klucel (hydroxypropylcellulose) (HPC)",100 % of control
same,T/C,[11],100 % of control
same,T/C,"dose: 200.0 mg/kg/injection, schedule: Q04DX002 (ip), vehicle: Klucel (hydroxypropylcellulose) (HPC)",100 % of control
same,T/C,[12],99 % of control
same,T/C,"dose: 400.0 mg/kg/injection, schedule: Q04DX002 (ip), vehicle: Klucel (hydroxypropylcellulose) (HPC)",98 % of control
CCCC(CCC)NCC(O)c1cc(-c2ccc(C(F)(F)F)cc2)nc(C(F)(F)F)c1 (stereo not drawn),T/C,[9],102 % of control
same,T/C,[13],107 % of control
same,T/C,[1],100 % of control and 91 % of control
Cc1cc2cc3c(c(C(=O)O)c2o1)C(=O)c1ccccc1C3,T/C,[6],107 % of control
same,T/C,[7],111 % of control
same,T/C,[8],94 % of control
O=C(Nc1cc(-c2ccccc2)nn1-c1ccccc1)c1ccccc1F,T/C,[6],103 % of control
same,T/C,[7],103 % of control
same,T/C,[8],111 % of control
CC(O)CC1=Nc2c(nc(N)[nH]c2=O)N(C)C1 (stereo not drawn),T/C,[14],98 % of control
same,T/C,"dose: 200.0 mg/kg/injection, schedule: Q04DX003 (ip), vehicle: saline with Tween-80",97 % of control
same,T/C,"dose: 400.0 mg/kg/injection, schedule: Q04DX003 (ip), vehicle: saline with Tween-80",113 % of control
NC1[N-]C(C2CCCC[N-]2)CC2C(Cl)CCCC12.O=[N+]([O-])O.O=[N+]([O-])O.[Cu+2] (stereo not drawn),T/C,"dose: 6.25 mg/kg/injection, schedule: Q04DX002 (ip), vehicle: suspension in saline",101 % of control
same,T/C,"dose: 12.5 mg/kg/injection, schedule: Q04DX002 (ip), vehicle: suspension in saline",111 % of control
COC(C)(C)O/N=C(\C[n+]1ccccc1)c1ccccc1,T/C,"dose: 3.13 mg/kg/injection, schedule: Q01DX009 (ip), vehicle: water",100 % of control
same,T/C,"dose: 6.25 mg/kg/injection, schedule: Q01DX009 (ip), vehicle: water",104 % of control
same,T/C,"dose: 12.5 mg/kg/injection, schedule: Q01DX009 (ip), vehicle: water",114 % of control
same,T/C,"dose: 25.0 mg/kg/injection, schedule: Q01DX009 (ip), vehicle: water",105 % of control
CCCC[As](CCCC)SC1CC(OC(=O)c2ccccc2)C(OC(=O)c2ccccc2)C(COC(=O)c2ccccc2)O1 (stereo not drawn),T/C,"dose: 6.25 mg/kg/injection, schedule: Q01DX009 (ip), vehicle: saline + alcohol",108 % of control
same,T/C,"dose: 12.5 mg/kg/injection, schedule: Q01DX009 (ip), vehicle: saline + alcohol",95 % of control
same,T/C,"dose: 25.0 mg/kg/injection, schedule: Q01DX009 (ip), vehicle: saline + alcohol",105 % of control
same,T/C,"dose: 50.0 mg/kg/injection, schedule: Q01DX009 (ip), vehicle: saline + alcohol",100 % of control
C[n+]1noc([O-])c1-c1ccccc1,T/C,[1],102 % of control
same,T/C,[2],104 % of control
CN(C)c1ccc(C(N)=O)cn1,T/C,"dose: 1.56 mg/kg/injection, schedule: Q01DX009 (ip), vehicle: saline with Tween-80",109 % of control
same,T/C,"dose: 6.25 mg/kg/injection, schedule: Q01DX009 (ip), vehicle: saline with Tween-80",90 % of control
same,T/C,"dose: 12.5 mg/kg/injection, schedule: Q04DX003 (ip), vehicle: saline with Tween-80",109 % of control
same,T/C,"dose: 25.0 mg/kg/injection, schedule: Q04DX003 (ip), vehicle: saline with Tween-80",118 % of control
same,T/C,[15],118 % of control
O=C1NC(=O)C2(CCCc3ccc(N(CCCl)CCCl)cc32)N1 (stereo not drawn),T/C,"dose: 0.38 mg/kg/injection, schedule: Q04DX003 (ip), vehicle: saline with Tween-80",108 % of control
same,T/C,"dose: 0.75 mg/kg/injection, schedule: Q04DX003 (ip), vehicle: saline with Tween-80",104 % of control
same,T/C,"dose: 1.5 mg/kg/injection, schedule: Q04DX003 (ip), vehicle: saline with Tween-80",104 % of control
same,T/C,[9],159 % of control
same,T/C,[13],172 % of control
same,T/C,[15],181 % of control
same,T/C,[14],181 % of control
same,T/C,"dose: 132.0 mg/kg/injection, schedule: Q04DX003 (ip), vehicle: saline with Tween-80",177 % of control
